As a reminder, the EC50 is the concentration needed to bring the measured effect to its halfway point.

The target of the assay is GLP-1R (Homo sapiens, UniProt P43220). Kind of assay: Agonist activity on GLP-1R, HTRF cAMP detection in stably transfected GLP-1R/HEK293 cells. Type of assay: cell-based. The conditions noted are these: for EC50: 30 min incubation; for Max activity: relative to top concentration of reference GLP-1(7-37). The protocol: Detection of Agonist Activity of the Test Compounds on GLP-1R
Chain of GLP-1R (P43220 24-463): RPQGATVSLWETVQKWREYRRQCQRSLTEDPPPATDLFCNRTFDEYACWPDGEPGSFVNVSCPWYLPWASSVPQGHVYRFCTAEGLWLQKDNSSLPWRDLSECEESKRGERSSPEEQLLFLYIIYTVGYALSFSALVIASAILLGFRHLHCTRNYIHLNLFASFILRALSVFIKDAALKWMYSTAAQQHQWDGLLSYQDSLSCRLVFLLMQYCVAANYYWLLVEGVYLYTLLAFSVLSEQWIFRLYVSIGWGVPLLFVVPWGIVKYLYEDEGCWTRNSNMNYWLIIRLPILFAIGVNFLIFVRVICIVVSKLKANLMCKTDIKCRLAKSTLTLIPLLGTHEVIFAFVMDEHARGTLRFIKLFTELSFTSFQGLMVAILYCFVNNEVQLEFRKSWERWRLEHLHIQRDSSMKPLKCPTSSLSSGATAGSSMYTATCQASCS
• 1) The test compound was dissolved in DMSO and diluted 4-fold with Bravo for a total of 10 concentration gradients (the starting concentration was 1 mM). […] HBSS (10 mL) pre-warmed at 37° C. was added, mixed gently, and centrifuged at 1000 rpm for 5 minutes. The supernatant was discarded and another 10 mL of […] was added and mixed gently. […] The plate was shaken to mix at 2000 rpm for 60 seconds. • 7) The cells in the 384-well plate were incubated in CO2 cell incubator at 37° C. for 30 min. • 8) 10 μL of HTRF cAMP detection solution was added to the 384-well plate, stick with sealing film, and incubated at room temperature for 1 hour. • 9) After 1 hour of incubation, the sealing film was removed. The plate was put into the EnVision microplate reader to read the values of OD665 nm and OD615 nm.
(Time-resolved FRET reads energy transfer from a long-lived donor to a nearby acceptor.)

Molecules are shown by their SMILES.

As to `O=C(O)c1ccc2nc(CN3CCC(Oc4cccc(COc5ccc(Br)cc5F)n4)CC3)n(C[C@@H]3CCO3)c2c1` [Compound C4, (S)-2-((4-((6-((4-bromo-2-fluorophenoxy)methyl)pyridin-2-yl)oxy)piperidin-1-yl)methyl)-1-(oxetan-2-ylmethyl)-1H-benzo[d]imidazole-6-carboxylic acid], the EC50 was found to be 0.56 nM and the Max activity worked out at 147.9%.

As for `CC1(Cn2c(CN3CCC(Oc4cccc(COc5ccc(C#N)cc5F)n4)CC3)nc3ccc(C(=O)O)cc32)COC1` [Compound C5, 2-((4-((6-((4-cyano-2-fluorophenoxy)methyl)pyridin-2-yl)oxy)piperidin-1-yl)methyl)-1-((3-methyloxetan-3-yl)methyl)-1H-benzo[d]imidazole-6-carboxylic acid], the EC50 turned out to be 2.41 nM and the Max activity came to 112.6%.

`Cc1ncc(Cn2c(CN3CCC(Oc4cccc(COc5ccc(C#N)cc5F)n4)CC3)nc3ccc(C(=O)O)cc32)n1C` [Compound C6, 2-((4-((6-((4-cyano-2-fluorophenoxy)methyl)pyridin-2-yl)oxy)piperidin-1-yl)methyl)-1-((1,2-dimethyl-1H-imidazol-5-yl)methyl)-1H-benzo[d]imidazole-6-carboxylic acid]: the 50% effective concentration (EC50) came out at 13.8 nM and the Max activity stood at 99.8%.

In the case of `N#CCC1(Cn2c(CN3CCC(Oc4cccc(CSc5ccc(Cl)cc5F)n4)CC3)nc3ccc(C(=O)O)cc32)CC1` [Compound C7, 2-((4-((6-((4-chloro-2-fluorophenylthio)methyl)pyridin-2-yl)oxy)piperidin-1-yl)methyl)-1-((1-(cyanomethyl)cyclopropyl)methyl)-1H-benzo[d]imidazole-6-carboxylic acid], the EC50 was 23.5 nM and the Max activity is 90.1%.

As for `O=C(O)c1ccc2nc(CN3CCC(Oc4cccc(CSc5ccc(Cl)cc5F)n4)CC3)n(C[C@@H]3CCO3)c2c1` [Compound C8], the EC50 was determined as 25.6 nM and the Max activity came to 117.4%.

With `CCn1cncc1Cn1c(CN2CCC(Oc3cccc(CSc4ccc(Cl)cc4F)n3)CC2)nc2ccc(C(=O)O)cc21` [Compound C9], the EC50 was determined as 3.74 nM and the Max activity worked out at 97.2%.

Regarding `N#Cc1ccc(SCc2cccc(OC3CCN(Cc4nc5ccc(C(=O)O)cc5n4C[C@@H]4CCO4)CC3)n2)c(F)c1` [Compound C10, (S)-2-((4-((6-((4-cyano-2-fluorophenylthio)methyl)pyridin-2-yl)oxy)piperidin-1-yl)methyl)-1-(oxetan-2-ylmethyl)-1H-benzo[d]imidazole-6-carboxylic acid], the EC50 was 4.16 nM and the Max activity was determined as 110.2%.

Consider `CCn1cncc1Cn1c(CN2CCC(Oc3ccc(F)c(OCc4ccc(Cl)cc4F)n3)CC2)nc2ccc(C(=O)O)cc21` [Compound C11, 2-((4-((6-((4-chloro-2-fluorobenzyl)oxy)-5-fluoropyridin-2-yl)oxy)piperidin-1-yl)methyl)-1-((1-ethyl-1H-imidazol-5-yl)methyl)-1H-benzo[d]imidazole-6-carboxylic acid], for which the concentration for a half-maximal effect (EC50) worked out at 1.48 nM and the Max activity was found to be 114.8%.

Take `CCn1cncc1Cn1c(CN2CCC(Oc3cccc(CSc4ccc(C#N)cc4F)n3)CC2)nc2ccc(C(=O)O)cc21` [Compound C12, 2-((4-((6-(((4-cyano-2-fluorophenyl)thio)methyl)pyridin-2-yl)oxy)piperidin-1-yl)methyl)-1-((1-ethyl-1H-imidazol-5-yl)methyl)-1H-benzo[d]imidazole-6-carboxylic acid]: the half-maximal effective concentration (EC50) was 0.233 nM and the Max activity is recorded as 125.5%.

Turning to `N#CCC1(Cn2c(CN3CCC(Oc4cccc(CSc5ccc(C#N)cc5F)n4)CC3)nc3ccc(C(=O)O)cc32)CC1` [Compound C13, 2-((4-((6-(((4-cyano-2-fluorophenyl)thio)methyl)pyridin-2-yl)oxy)piperidin-1-yl)methyl)-1-((1-(cyanomethyl)cyclopropyl)methyl)-1H-benzo[d]imidazole-6-carboxylic acid], a half-maximal effect (EC50) was put at 1.82 nM and the Max activity was found to be 141.7%.

In the case of `C#Cc1ccc(OCc2cccc(OC3CCN(Cc4nc5ccc(C(=O)O)cc5n4Cc4cncn4CC)CC3)n2)c(F)c1` [Compound C14], it took 0.315 nM to reach a half-maximal effect (EC50) and the Max activity is reported as 101.9%.

Consider `C#Cc1ccc(OCc2cccc(OC3CCN(Cc4nc5ccc(C(=O)O)cc5n4C[C@@H]4CCO4)CC3)n2)c(F)c1` [Compound C15, (S)-2-((4-((6-((4-ethynyl-2-fluorophenoxy)methyl)pyridin-2-yl)oxy)piperidin-1-yl)methyl)-1-(oxetan-2-ylmethyl)-1H-benzo[d]imidazole-6-carboxylic acid], for which the half-maximal effective concentration (EC50) worked out at 0.807 nM and the Max activity is reported as 109.1%.

Take `N#Cc1ccc(OCc2cccc(NC3CCN(Cc4nc5ccc(C(=O)O)cc5n4C[C@@H]4CCO4)CC3)n2)c(F)c1` [Compound C16, (S)-2-((4-((6-((4-cyano-2-fluorophenoxy)methyl)pyridin-2-yl)amino)piperidin-1-yl)methyl)-1-(oxetan-2-ylmethyl)-1H-benzo[d]imidazole-6-carboxylic acid]: the response was half-maximal at 2.54 nM (EC50) and the Max activity was determined as 99.2%.

Turning to `CCn1cncc1Cn1c(CN2CCC(Nc3cccc(COc4ccc(C#N)cc4F)n3)CC2)nc2ccc(C(=O)O)cc21` [Compound C17, 2-((4-((6-((4-cyano-2-fluorophenoxy)methyl)pyridin-2-yl)amino)piperidin-1-yl)methyl)-1-((1-ethyl-1H-imidazol-5-yl)methyl)-1H-benzo[d]imidazole-6-carboxylic acid], the EC50 amounted to 0.668 nM and the Max activity turned out to be 127.7%.

As for `O=C(O)c1ccc2nc(CN3CCC(Oc4cccc(COc5ccc(Br)cc5F)n4)CC3)n(Cc3cncn3CC3CC3)c2c1` [Compound C19, 2-((4-((6-((4-bromo-2-fluorophenoxy)methyl)pyridin-2-yl)oxy)piperidin-1-yl)methyl)-1-((1-(cyclopropylmethyl)-1H-imidazol-5-yl)methyl)-1H-benzo[d]imidazole-6-carboxylicacid], the concentration for a half-maximal effect (EC50) is 1.07 nM and the Max activity came out at 134.3%.

Take `N#Cc1ccc(OCc2cccc(OC3CCN(Cc4nc5ccc(C(=O)O)cc5n4Cc4cncn4CC4CC4)CC3)c2)c(F)c1` [Compound C20, 2-((4-(3-((4-cyano-2-fluorophenoxy)methyl)phenoxy)piperidin-1-yl)methyl)-1-((1-(cyclopropylmethyl)-1H-imidazol-5-yl)methyl)-1H-benzo[d]imidazole-6-carboxylic acid]: the EC50 was found to be 0.425 nM and the Max activity is 137.0%.

Turning to `Cn1c(CN2CCC(Oc3cccc(COc4ccc(Cl)cc4F)n3)CC2)nc2ccc(C(=O)O)cc21` [Compound C22, 2-((4-((6-((4-chloro-2-fluorophenoxy)methyl)pyridin-2-yl)oxy)piperidin-1-yl)methyl)-1-methyl-1H-benzo[d]imidazole-6-carboxylic acid], the midpoint of the response, the EC50, lay at 30.4 nM.

For the compound `CCn1cncc1Cn1c(Cc2ccc(Oc3cccc(COc4ccc(Cl)cc4F)n3)cc2)nc2ccc(C(=O)O)cc21` [Compound C24, 2-(4-((6-((4-chloro-2-fluorophenoxy)methyl)pyridin-2-yl)oxy)benzyl)-1-((1-ethyl-1H-imidazole-5-yl)methyl)-1H-benzo[d]imidazole-6-carboxylic acid], the midpoint of the response, the EC50, lay at 1.67 nM and the Max activity amounted to 76.88%.

On to `C#Cc1ccc(OCc2cccc(OC3CCN(Cc4nc5ccc(C(=O)O)cc5n4CC4(CC#N)CC4)CC3)n2)c(F)c1` [Compound C25, 1-((1-(cyanomethyl)cyclopropyl)methyl)-2-((4-((6-((4-ethynyl-2-fluorophenoxy)-methyl)pyridine-2-yl)oxy)piperidin-1-yl)methyl)-1H-benzo[d]imidazole-6-carboxylic acid], for which a half-maximal response (EC50) required 0.512 nM and the Max activity is given as 133.4%.

On to `N#CCC1(Cn2c(CN3CCC(Oc4cccc(COc5ccc(Br)cc5F)n4)CC3)nc3ccc(C(=O)O)cc32)CC1` [Compound C26, 2-((4-((6-((4-bromo-2-fluorophenoxy)methyl)pyridin-2-yl)oxy)piperidin-1-yl)methyl)-1-((1-(cyanomethyl)cyclopropyl)methyl)-1H-benzo[d]imidazole-6-carboxylic acid], for which the midpoint of the response, the EC50, lay at 0.215 nM and the Max activity turned out to be 117.3%.

Take `N#Cc1ccc(OCc2cccc(Oc3ccc(Cc4nc5ccc(C(=O)O)cc5n4C[C@@H]4CCO4)cc3)n2)c(F)c1` [Compound C27, (S)-2-(4-((6-((4-cyano-2-fluorophenoxy)methyl)pyridin-2-yl)oxy)benzyl)-1-(oxetan-2-ylmethyl)-1H-benzo[d]imidazole-6-carboxylic acid]: the response was half-maximal at 8.03 nM (EC50).

For the compound `CCn1cncc1Cn1c(Cc2ccc(Oc3cccc(COc4ccc(C#N)cc4F)n3)cc2)nc2ccc(C(=O)O)cc21` [Compound C28, 2-(4-((6-((4-cyano-2-fluorophenoxy)methyl)pyridin-2-yl)oxy)benzyl)-1-((1-ethyl-1H-imidazol-5-yl)methyl)-1H-benzo[d]imidazole-6-carboxylic acid], the concentration for a half-maximal effect (EC50) was determined as 5.05 nM.

For the compound `C#Cc1ccc(OCc2cccc(OC3CCN(Cc4nc5ccc(C(=O)O)cc5n4Cc4cncn4C(C)C)CC3)c2)c(F)c1` [Compound C29, 2-((4-(3-((4-ethynyl-2-fluorophenoxy)methyl)phenoxy)piperidin-1-yl)methyl)-1-((1-isopropyl-1H-imidazol-5-yl)methyl)-1H-benzo[d]imidazole-6-carboxylic acid], a half-maximal effect (EC50) was put at 6.83 nM and the Max activity was 121.6%.
